From PMC6018403 (Frontiers in Pharmacology, 2018)
Where two headings read alike, the source gives them in different places.

Assay: Multi-component pharmacokinetic study of GQD, GQD-GC and single herb extracts in rats (plasma, LC/MS/MS)
Assay type: in vivo, Sprague-Dawley rats
Procedure: Male Sprague-Dawley rats (220–250 g) were used for PK study, and the details were described in Supplemental Data. All procedures were in accordance with the National Institutes of Health Guide for the Care and Use of Laboratory Animals.
For PK study of GQD and its component herbs, rats were randomly divided into six groups (n = 10 for each group) before oral administration.
All blood samples were immediately centrifuged at 6,000 rpm (4°C) for 20 min to obtain plasma. The plasma samples were stored at −80°C.
A Finnigan TSQ Quantum triple quadrupole mass spectrometer was connected to a Surveyor HPLC via ESI interface (ThermoFisher). High purity nitrogen was used as the sheath and auxiliary gas; Ultra-high purity argon was used as the collision gas (1.5 mTorr). Q1 and Q3 quadrupoles were set at unit resolution. […] The column temperature was 40°C. The mobile phase consisted of acetonitrile containing 2% (v/v) methanol (A) and water containing 0.1% (v/v) formic acid (B). […] An aliquot of 5 μL was injected for analysis. UV spectra were obtained by scanning from 200 to 400 nm. The mass spectrometer was operated in the (+)-ESI mode. The optimized parameters were as follows: sheath gas (N2), 50 arb; auxiliary gas (N2), 5 arb; spray voltage, 4.0 kV; capillary temperature, 330°C; collision energy, see Table S1. Analytes were detected in the selected reaction monitoring (SRM) mode. Data were processed by Xcalibur 2.0.7 software (ThermoFisher).
LC/MS/MS calibration and quantitation data were processed with Xcalibur 2.0.7 software (ThermoFisher). The maximal plasma concentrations (Cmax) and their time of occurrence (Tmax) were obtained directly from the measured data. Other pharmacokinetic parameters were calculated by non-compartment or compartment models using WinNonlin® software (v6.1, Pharsight). Unless otherwise stated, results were expressed as the mean ± SD. Statistical significance in differences of the means was determined by Student's t–test, with a significance level of P < 0.05.
Herbal materials and extracts.
The four component herbs, Puerariae Lobatae Radix (Ge-Gen, GG), Scutellariae Radix (Huang-Qin, HQ), Coptidis Rhizoma (Huang-Lian, HL), and Glycyrrhizae Radix et Rhizoma Praeparata cum Melle (Gan-Cao, GC) were purchased from Tianheng Pharmacy. GQD was prepared by decocting the four component herbs […]
pre-extraction of Ge-Gen using 200 mL of water for 0.5 h. The decoctions were combined, filtered, and concentrated in vacuum at 50 °C. GQD-GC was prepared using the same procedure, except that Gan-Cao was removed from the formula. Final concentration of the GQD-GC extract was equivalent to 1.0 g of the crude drugs per mL. For single herb extracts, the herbs were decocted in 8-fold volume of water for […]
Final concentrations of the extracts were 1.0 g/mL for Ge-Gen, and 0.5 g/mL for Huang-Qin, Huang-Lian and […]
For pharmacokinetic study, Male Sprague-Dawley rats (220-250 g) were obtained from the Laboratory Animal Center of Peking University Health Science Center. The […]
The rats had free access to tap water and soy-free custom diet (Ke’ao Xieli Co.). All procedures were in accordance with the National Institutes of Health Guide for the Care and Use of Laboratory Animals […]
Experimental details for the PK study
1. Preparation of internal standard solution, calibration standard solutions, and quality control solutions […]
internal standard solution. Reference standard compounds were dissolved in the internal standard solution to prepare individual stock solutions (1.0 mg/mL). These […]
each compound. The standard solution was then serially diluted to obtain calibration […]
Quality control stock solutions were prepared at three concentration levels as high QC (HQC), middle QC (MQC), and low QC (LQC), based on linear ranges of the analytes.
2.1. Sample preparation for pharmacokinetic study
The calibration standard and quality control solutions for pharmacokinetic study were […]

[1] = male, Sprague-Dawley, rat, plasma, po, 18.9 g/kg, GQD group: rats, oral GQD extract 18.9 g/kg, plasma, read-out: AUClast
[2] = male, Sprague-Dawley, rat, GQD group: rats, oral GQD extract 18.9 g/kg, plasma, read-out: Cmax
[3] = male, Sprague-Dawley, rat, GQD group: rats, oral GQD extract 18.9 g/kg, plasma, read-out: T1/2 (converted)
[4] = male, Sprague-Dawley, rat, GQD group: rats, oral GQD extract 18.9 g/kg, plasma, read-out: Tmax
[5] = male, Sprague-Dawley, rat, plasma, po, 16.5 g/kg, GQD-GC group (GQD without Gan-Cao): rats, oral 16.5 g/kg, plasma, read-out: AUClast
[6] = male, Sprague-Dawley, rat, GQD-GC group (GQD without Gan-Cao): rats, oral 16.5 g/kg, plasma, read-out: Cmax
[7] = male, Sprague-Dawley, rat, GQD-GC group (GQD without Gan-Cao): rats, oral 16.5 g/kg, plasma, read-out: T1/2 (converted)
[8] = male, Sprague-Dawley, rat, GQD-GC group (GQD without Gan-Cao): rats, oral 16.5 g/kg, plasma, read-out: Tmax
[9] = male, Sprague-Dawley, rat, in vivo, po, 3.54 g/kg
[10] = male, Sprague-Dawley, rat, in vivo, po, 16.5 g/kg
[11] = male, Sprague-Dawley, rat, in vivo, po, 18.9 g/kg

O=c1cc(-c2ccccc2)oc2cc(O)c(O)c(O)c12 [Compound 12, baicalein]
AUC(0-t) (male, Sprague-Dawley, rat, plasma, po, 3.54 g/kg, HQ (Huang-Qin) group: rats, oral extract 3.54 g/kg, plasma, read-out: AUClast): 19.5 ± 11.2 ng·h/mL
AUC(0-t) [1]: 108 ± 47 ng·h/mL
Cmax [2]: 11.1 ± 0.66 ng/mL
half-life [3]: 7.57 ± 0.21 h
Tmax [4]: 0.42 ± 0.03 h
Cmax (male, Sprague-Dawley, rat, HQ (Huang-Qin) group: rats, oral extract 3.54 g/kg, plasma, read-out: Cmax): 3.46 ± 0.34 ng/mL
half-life (male, Sprague-Dawley, rat, HQ (Huang-Qin) group: rats, oral extract 3.54 g/kg, plasma, read-out: T1/2 (converted)): 5.99 ± 1.23 h
Tmax (male, Sprague-Dawley, rat, HQ (Huang-Qin) group: rats, oral extract 3.54 g/kg, plasma, read-out: Tmax): 1 ± 0.64 h

O=c1c(-c2ccc(O)cc2)coc2cc(O[C@@H]3O[C@H](CO)[C@@H](O)[C@H](O)[C@H]3O)cc(O)c12 [Compound 4, genistin]
AUC(0-t) (male, Sprague-Dawley, rat, plasma, po, 9.45 g/kg, GG (Ge-Gen) group: rats, oral extract 9.45 g/kg, plasma, read-out: AUClast): 51.7 ± 24.2 ng·h/mL
AUC(0-t) [5]: 88.2 ± 24.3 ng·h/mL
AUC(0-t) [1]: 72.6 ± 15.2 ng·h/mL
Cmax (male, Sprague-Dawley, rat, GG (Ge-Gen) group: rats, oral extract 9.45 g/kg, plasma, read-out: Cmax): 3.09 ± 1.99 ng/mL
half-life (male, Sprague-Dawley, rat, GG (Ge-Gen) group: rats, oral extract 9.45 g/kg, plasma, read-out: T1/2 (converted)): 6.88 ± 5.23 h
Tmax (male, Sprague-Dawley, rat, GG (Ge-Gen) group: rats, oral extract 9.45 g/kg, plasma, read-out: Tmax): 1 ± 2.31 h
Cmax [2]: 4.97 ± 1.11 ng/mL
half-life [3]: 6.93 ± 0.73 h
Tmax [4]: 1.04 ± 0.78 h
Cmax [6]: 8.08 ± 3.19 ng/mL
half-life [7]: 8.17 ± 2.43 h
Tmax [8]: 1.04 ± 0.75 h
bioavailability in the GQD group compared with the Ge-Gen group (rats, oral): higher

COc1cc2c(cc1OC)-c1cc3ccc(OC)c(OC)c3c[n+]1CC2 [Compound 25, palmatine]
increase of AUClast in GQD group compared with the Huang-Lian group (male, Sprague-Dawley, rat, in vivo, po): 32.7%
Cmax [9]: 5.96 ± 1.35 ng/mL
Tmax [9]: 0.25 ± 1.25 h
half-life [9]: 3.25 ± 2.43 h
AUC(0-t) (male, Sprague-Dawley, rat, in vivo, po, 3.54 g/kg, AUClast): 51.5 ± 27.8 ng·h/mL
Cmax [10]: 4.75 ± 10.2 ng/mL
Tmax [10]: 0.26 ± 0.15 h
half-life [10]: 3.03 ± 2.36 h
AUC(0-t) (male, Sprague-Dawley, rat, in vivo, po, 16.5 g/kg, AUClast): 43.4 ± 17 ng·h/mL
Cmax [11]: 17.1 ± 2.98 ng/mL
Tmax [11]: 0.17 ± 0.03 h
half-life [11]: 1.62 ± 1.82 h
AUC(0-t) (male, Sprague-Dawley, rat, in vivo, po, 18.9 g/kg, AUClast): 68.3 ± 39.2 ng·h/mL

COc1cc2c(cc1OC)-c1cc3ccc4c(c3c[n+]1CC2)OCO4 [Compound 22, epiberberine]
AUC(0-t) (male, Sprague-Dawley, rat, plasma, po, 3.54 g/kg, HL (Huang-Lian) group: rats, oral extract 3.54 g/kg, plasma, read-out: AUClast): 16.7 ± 9.45 ng·h/mL
AUC(0-t) [5]: 26.4 ± 11 ng·h/mL
AUC(0-t) [1]: 29.4 ± 21.3 ng·h/mL
Cmax [2]: 7.21 ± 3.62 ng/mL
half-life [3]: 4.84 ± 0.13 h
Tmax [4]: 0.58 ± 0.12 h
Cmax [6]: 9.35 ± 1.71 ng/mL
half-life [7]: 4.97 ± 0.85 h
Tmax [8]: 0.54 ± 0.17 h
Cmax (male, Sprague-Dawley, rat, HL (Huang-Lian) group: rats, oral extract 3.54 g/kg, plasma, read-out: Cmax): 3.53 ± 0.34 ng/mL
half-life (male, Sprague-Dawley, rat, HL (Huang-Lian) group: rats, oral extract 3.54 g/kg, plasma, read-out: T1/2 (converted)): 4.34 ± 0.18 h
Tmax (male, Sprague-Dawley, rat, HL (Huang-Lian) group: rats, oral extract 3.54 g/kg, plasma, read-out: Tmax): 0.58 ± 0.23 h
